# Source: patent US6573286B1, “2-(2,6-disubstituted phenyl)-4-aryl-5-alkyl-1,3-oxazoline compounds” (Dow AgroSciences LLC, priority 2002, dated 2003)
# How the values were obtained:
# Assay type in all cases: in vivo
# [1] = system: two-spotted spider mite (Tetranychus urticae); test: Insecticidal test for two-spotted spider mite, ovicide method; conditions: Tetranychus urticae, foliar, 144 h, ovicide method on cotton leaf discs, 6 days, read-out: SM: activity against two-spotted spider mite (% Control rating)
# Protocol: Insecticidal test for two-spotted spider mite (Tetranychus urticae) Ovicide Method: Ten adult female two-spotted spider mites were placed on eight 2.2 cm leaf discs of cotton leaf, allowed to oviposit over 24 hours, and thereafter removed. […] Discs were placed on an agar substrate and held at 24° C. and 90% RH for 6 days.
# [2] = system: cabbage looper (Trichoplusia ni); test: Insecticidal test for cabbage looper, treated cabbage leaf disc; conditions: Trichoplusia ni, foliar, 120 h, 2nd instar larvae on dipped cabbage leaf discs, 5 days, read-out: CL: activity against cabbage looper (% Control rating)
# Protocol: (§1) Insecticidal test for tobacco budworm (Heliothis virescens), beet armyworm (Spodoptera exigua), and cabbage looper (Trichoplusia ni). To prepare test solution, the test compound was formulated at 400 ppm in 7.5 mL of 2 acetone:1 tap water. 250 μL of the test solution was pipetted upon the surface of 8 mL of lepidopteran diet (modified Shorey) contained in each of five one-ounce plastic cups (one cup=1 replication). […] After air-drying, the treated leaf discs were placed individually into one-ounce plastic cups. Each dried, treated cotton cotyledon disc was infested with a 2nd instar tobacco budworm larva, and each cabbage leaf disc was infested with a 2nd instar cabbage looper larva. Cups containing the treated substrates and larvae were capped and then held in a growth chamber at 25° C., 50-55% RH, and 14 hr light:10 hr dark for 5 days.
# [3] = system: beet armyworm (Spodoptera exigua); test: Insecticidal test for beet armyworm, treated lepidopteran diet; conditions: Spodoptera exigua, 120 h, 2nd instar larvae on treated diet, 5 days, read-out: BAW: activity against beet armyworm (% Control rating)
# Protocol: as §1
# [4] = system: tobacco budworm (Heliothis virescens); test: Insecticidal test for tobacco budworm, treated cotton cotyledon leaf disc; conditions: Heliothis virescens, foliar, 120 h, 2nd instar larvae on dipped cotton cotyledon discs, 5 days, read-out: TBW: activity against tobacco budworm (% Control rating)
# Protocol: as §1
# [5] = system: Sweetpotato Whitefly (Bemisia tabacia); test: Insecticidal test for Sweetpotato Whitefly, sprayed cotton plants; conditions: Bemisia, 312 h, 200 ppm spray, large nymphs counted after 13 days, read-out: WF: activity against whitefly (% Control rating)
# Protocol: Insecticidal test for Sweetpotato Whitefly (Bemisia tabacia) Four mg of each test compound were dissolved by adding 4 mL of a 90:10 acetone:ethanol solvent mixture to the vial containing the sample compound. This solution was added to 16 mL of water containing 0.05% Tween 20 surfactant to produce 20 mL of a 200 ppm spray solution. Five-week-old cotton plants reared in a greenhouse were stripped of all foliage except for the two uppermost true leaves that were greater than 5 cm in diameter. These plants were then placed into a laboratory colony of whiteflies for two days for oviposition by the colony females. All whiteflies were then removed from the test plants with pressurized air. The spray solution was then applied to the test plants with a hand-held syringe fitted with hollow cone nozzle. One mL spray solution was applied to each leaf top and bottom for a total of 4 mL per plant. Four replications of each test compound utilized a total of 16 mL spray solution. Plants were air dried and then placed in a holding chamber (28° C. and 60% RH) for 13 days. Compound efficacy was evaluated by counting, under an illuminated magnifying glass, the number of large nymphs (3rd-4th instar) per leaf. Percent control based on reduction of large nymphs of a test compound compared to solution-only (no test compound) sprayed plants is reported in Table 1-8.
# [6] = system: cotton aphid (Aphis gossypii); test: Insecticidal test for cotton aphid, sprayed squash cotyledons; conditions: 50 ppm spray, graded after 3 days
# Protocol: Insecticidal test for cotton aphid (Aphis gossypii) To prepare spray solutions, 1 mg of each test compound was dissolved into 1 mL of a 90:10 acetone:ethanol solvent. This 1 mL of chemical solution was added to 19 mL of water containing 0.05% Tween 20 surfactant to produce a 50 ppm spray solution. Squash cotyledons were infested with cotton aphid (all life stages) 16-20 hours prior to application of spray solution. The solution was sprayed on both sides of each infested squash cotyledon (0.5 mL×2 each side) with a sweeping action until runoff. The plants were allowed to air dry and held for 3 days in a controlled room at 26° C. and 40% RH after which time the test was graded. Grading was by actual count using a dissecting microscope and comparison of test counts to the untreated check.
smiles,measurement,setting,value
"C[C@@H]1OC(c2c(F)cccc2F)=N[C@@H]1c1ccc(I)cc1 (racemic) [Compound 1, (4R,5S)- and (4S,5R)-4-(4-iodophenyl)-2-(2,6-difluorophenyl)-5-methyl-4,5-dihydro-1,3-oxazole]",pest or weed control at 2.5 ppm,[1],90 to 100%
same,pest or weed control at 400 ppm,[2],60 to 69%
same,pest or weed control at 400 ppm,[3],< 50%
same,pest or weed control at 400 ppm,[4],< 50%
same,pest or weed control at 200 ppm,[5],60 to 69%
same,CA: activity against cotton aphid (% Control rating),[6],A (90-100)
